Experimental data reported in paper PMC11859181, “Alternaria alternata (Fr) Keissl Crude Extract Inhibits HIV Subtypes and Integrase Drug-Resistant Strains at Different Stages of HIV Replication” (Pharmaceuticals, 2025).
In brackets after ≈: the same amount, converted by molar mass. Read-outs that look alike come from different tables or passages of the source.

Assays:
[1] = system: MC 2297 (subtype A) HIV-1 virus; assay: microbe, parasite or virus in culture; format: cell-based; conditions: Human immunodeficiency virus 1, TZM-bl
[2] = system: PC 60 (subtype D) HIV-1 virus; assay: microbe, parasite or virus in culture; format: cell-based; conditions: Human immunodeficiency virus 1, TZM-bl
[3] = system: pNL4.3 (subtype B) HIV-1 virus; assay: Luciferase-based antiviral assay, pNL4.3 (wild type); format: cell-based
[4] = system: PC 148 (subtype A) HIV-1 virus; assay: microbe, parasite or virus in culture; format: cell-based; conditions: Human immunodeficiency virus 1, TZM-bl
[5] = system: CM9 (subtype C) HIV-1 virus; assay: microbe, parasite or virus in culture; format: cell-based; conditions: Human immunodeficiency virus 1, TZM-bl
[6] = system: CM7 (subtype C) HIV-1 virus; assay: microbe, parasite or virus in culture; format: cell-based; conditions: Human immunodeficiency virus 1, TZM-bl
[7] = system: PC 178 (subtype D) HIV-1 virus; assay: microbe, parasite or virus in culture; format: cell-based; conditions: Human immunodeficiency virus 1, TZM-bl
[8] = MTT cell viability and cytotoxicity assay; format: cell-based; conditions: human, TZM-bl cells
Procedure: A. alternata crude extract cell cytotoxicity and viability were assessed by MTT (3-[4, 5-dimethylthiazol-2-yl]-2, 5-diphenyltetrazolium bromide) cell viability assay using the CYQUANT MTT cell proliferation kit (Thermo Fisher Scientific, Waltham, MA, USA). A 96-well culture plate was seeded with 15,000 TZM-bl cells/200 µL of DMEM per well and incubated at 37 °C with 5% CO2.). Following this, 10 µL of the drug control azidothymidine (NIH AIDS Research and Reference Reagent Programme) and the A. alternata crude extract were diluted five-fold, and control wells where neither the control drug AZT nor the crude extract was added were followed by incubation at 37 °C with 5% CO2 and 95% humidity for 48 h. Ten microlitres of 12 mM of MTT solution was added to each well and incubated for 4 h at 37 °C with 5% CO2 and 95% humidity. Then, 50 µL of 100% DMSO were added to each well and incubated for 10 min. The absorbance was then measured at a wavelength of 540 nm using the Victor Nivo microplate reader (PerkinElmer, Waltham, MA, USA). The percentage of cell viability was calculated using the formula below:%Cell viability = (Sample absorbance − media control)/(Mean media control absorbance) × 100
The drug control azidothymidine and A. alternata crude extract CC50 (50% cytotoxic concentration) were determined using GraphPad Prism software (v.5) by dose-response curve.

[9] = system: YU2 (subtype B) HIV-1 virus; assay: microbe, parasite or virus in culture; format: cell-based; conditions: Human immunodeficiency virus 1, TZM-bl
[10] = system: integrase drug-resistant strain T66K; assay: microbe, parasite or virus in culture; format: cell-based, HIV-1; conditions: for IC50: Human immunodeficiency virus 1, TZM-bl, read-out: IC50 (T66K); for inhibition at 300 µg/mL: Human immunodeficiency virus 1, read-out: inhibition of HIV replication; for fold change (FC) T66K: drug-resistant strain IC50/wild-type IC50
[11] = system: integrase drug-resistant strain S230R; conditions: previously reported; cited from earlier work
[12] = system: integrase drug-resistant strain S230R; assay: microbe, parasite or virus in culture; format: cell-based, HIV-1; conditions: for IC50: Human immunodeficiency virus 1, TZM-bl, read-out: IC50 (S230R); for inhibition at 300 µg/mL: Human immunodeficiency virus 1, read-out: inhibition of HIV replication; for fold change (FC) S230R: drug-resistant strain IC50/wild-type IC50
[13] = system: integrase drug-resistant strain T66K; design: method as in PMID 18625269; conditions: previously reported; cited from earlier work
[14] = Human immunodeficiency virus 1, read-out: IC50 (WT)

For `Cc1cn([C@H]2C[C@H](N=[N+]=[N-])[C@@H](CO)O2)c(=O)[nH]c1=O` [Azidothymidine, azidothymidine], the IC50 [1] was 0.0138 ± 0.001 µg/mL (≈ 0.0518 µM), the IC50 [2] was 0.078 ± 0.005 µg/mL (≈ 0.292 µM) and the IC50 ([3]; Human immunodeficiency virus 1, TZM-bl) was 0.0338 ± 0.004 µg/mL (≈ 0.126 µM). For the same molecule, the IC50 [4] was 0.0403 ± 0.002 µg/mL (≈ 0.151 µM), the IC50 [5] was 0.0924 ± 0.007 µg/mL (≈ 0.346 µM) and the IC50 [6] was 0.058 ± 0.009 µg/mL (≈ 0.217 µM). The IC50 [7] was 0.0813 ± 0.003 µg/mL (≈ 0.304 µM), the viability at 48 h [8] was > 80% and the CC50 at 48 h ([8]; 48 h, triplicate) was 385 ± 6.29 µg/mL (≈ 1440 µM). For the same molecule, the IC50 [9] was 0.0423 ± 0.004 µg/mL (≈ 0.158 µM).
With `C[C@@H]1CCO[C@H]2Cn3cc(C(=O)NCc4ccc(F)cc4F)c(=O)c(O)c3C(=O)N12` [Dolutegravir, dolutegravir] the IC50 [3, 14] was 0.175 ± 0.019 µg/mL (≈ 0.418 µM), the IC50 [10] was 0.327 ± 0.031 µg/mL (≈ 0.78 µM) and the inhibition at 300 µg/mL [10] was 100%. For the same molecule, the “fold change (FC) T66K” value [10] was 1.864, the “FC in susceptibility conferred by S230R mutation” value [11] was 3.85 and the IC50 [12] was 0.383 ± 0.04 µg/mL (≈ 0.914 µM). The inhibition at 300 µg/mL [12] was 100%, the “fold change (FC) S230R” value [12] was 2.166 and the “FC conferred by T66K mutation” value [13] was 2.
Work on `Cc1nnc(C(=O)NC(C)(C)c2nc(C(=O)NCc3ccc(F)cc3)c(O)c(=O)n2C)o1` [Raltegravir, raltegravir] yielded an IC50 [3, 14] of 0.0364 ± 0.001 µg/mL (≈ 0.082 µM), an IC50 [10] of 0.479 ± 0.078 µg/mL (≈ 1.08 µM) and an inhibition at 300 µg/mL [10] of 100%. The “fold change (FC) T66K” value [10] was 13.15, the “FC in susceptibility conferred by S230R mutation” value [11] was 1.52 and the IC50 [12] was 0.0475 ± 0.0016 µg/mL (≈ 0.107 µM). For the same molecule, the inhibition at 300 µg/mL [12] was 100%, the “fold change (FC) S230R” value [12] was 1.305 and the “FC conferred by T66K mutation” value [13] was 9.6.
